In this test the test system is BV-2 microglial cells. In words: HO-1 expression and intracellular ROS in BV-2 microglia. It counts as cell-based, mouse. The method, then: Total proteins were extracted from cells or mouse brain tissues using radioimmunoprecipitation assay (RIPA) buffer (Sigma-Aldrich) containing a protease and phosphatase inhibitor cocktail (Roche Diagnostics). After 30 min of incubation with RIPA buffer on ice, lysates were centrifuged at 15800 g and 4 °C for 20 min and supernatants were collected. Protein concentrations were determined using Pierce® BCA Protein Assay Kit (Thermo Fisher Scientific). Protein samples (10 μg) were separated on 10% SDS-PAGE gels and transferred to polyvinylidene fluoride (PVDF) membranes (Millipore). The membranes were blocked in 5% skim milk (Millipore) in TBST (10 mM Tris-HCl, pH 7.5, 150 mM NaCl, and 0.1% Tween® 20) for 1 h at room temperature and incubated overnight at 4 °C with primary antibodies. […] The western blot bands were analyzed using ImageJ software (NIH) and β-Actin or glyceraldehyde 3-phosphate dehydrogenase (GAPDH) were used as a loading control. […]
Intracellular ROS accumulation was monitored using the cell-permeable fluorescent probe DCFH-DA (Sigma-Aldrich). […] After washing with phosphate-buffered saline (PBS), cells were imaged with an ImageXpress Pico (Molecular Devices) and fluorescence intensity was quantified using the ImageJ software (NIH).

With `Cc1cc(SCc2[se]c(-c3ccc(C(F)(F)F)cc3)nc2C)ccc1OCC(=O)O` [Compound 5a, {2-Methyl-4-[4-methyl-2-(4-trifluoromethyl-phenyl)-selenazol-5-yl-methylsulfanyl]-phenoxy}-acetic acid], where the note is “BV-2, 5 μM 24 h, H2O2 200 μM 20 min”, the “Intracellular ROS production (DCFH-DA)” value was “suppressed ROS production”. The HO-1 expression entry (BV-2, 48 h) is on record as “increased the expression of HO-1”.

These data come from publication PMC11488110 (Theranostics, 2024).
